The experiment addresses T1, human Y4 receptor (Homo sapiens, UniProt P50391).
T1 construct: expressed in transfected cells
As to the kind of experiment: NPY4 cAMP HTRF Agonist Assay (inhibitory cAMP assay, Gi activation by Y4 agonism). It is filed as cell-based. A digest of the protocol: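 Y4 agonism read as lowered forskolin-stimulated cAMP (HTRF, 1 h detection at room temperature). Stable human Y4 CHO clone, 5000 cells/well, incubated 30 min at room temperature with compounds plus forskolin and IBMX in PBS.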
(In general: Time-resolved FRET reads energy transfer from a long-lived donor to a nearby acceptor.)

Where [1] appears, read: human Y4 stable CHO clonal cells, forskolin + IBMX, read-out: NPY4 cAMP HTRF Agonist Assay EC50.
The mark [2] stands for this setting: second TABLE 1, R2 is Phenyl-CF3, read-out: hY4 CAMP EC50.
[3] abbreviates: human Y4 receptor, cAMP, read-out: hY4 CAMP EC50.
[4] abbreviates: TABLE 5, R2 is Pyridinyl-CF3, read-out: hY4 CAMP EC50.
Setting [5] is: TABLE 2, R2 is Phenyl-CN, read-out: hY4 CAMP EC50.

EC50 data for 43 compounds are collected here from US8815909B2, “Diaminocyclohexane compounds and uses thereof” (Bristol-Myers Squibb Company, priority 2011, dated 2014).

Molecules are shown by their SMILES. Read-outs that look alike come from different tables or passages of the source.

T1 sequence (P50391 whole entry): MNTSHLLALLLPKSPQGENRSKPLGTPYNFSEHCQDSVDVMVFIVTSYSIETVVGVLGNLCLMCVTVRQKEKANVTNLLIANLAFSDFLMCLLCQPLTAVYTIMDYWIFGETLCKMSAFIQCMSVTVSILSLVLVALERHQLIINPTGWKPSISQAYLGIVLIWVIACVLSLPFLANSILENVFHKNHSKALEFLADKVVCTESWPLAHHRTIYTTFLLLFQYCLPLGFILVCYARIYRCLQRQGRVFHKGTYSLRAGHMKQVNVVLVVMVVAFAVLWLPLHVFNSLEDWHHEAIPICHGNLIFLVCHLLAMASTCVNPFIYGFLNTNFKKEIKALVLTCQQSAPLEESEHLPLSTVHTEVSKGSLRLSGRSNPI

For `O=[N+]([O-])c1ccc(N2CCC[C@H](N[C@@H]3CCCC[C@H]3Nc3nccc(-c4ccccc4)n3)C2)cc1` [Example 32, (1R,2R)—N1-((S)-1-(4-Nitrophenyl)piperidin-3-yl)-N2-(4-phenylpyrimidin-2-yl)cyclohexane-1,2-diamine], under setting [1], the EC50 was 60 nM. On the same count and under the same terms, under `Cc1cc(OC(F)(F)F)ccc1-c1cnc(N[C@@H]2CCCC[C@H]2N[C@H]2CCCN(c3ccc([N+](=O)[O-])cc3)C2)o1` [Example 11, (1R,2R)—N1-(5-(2-Methyl-4-(trifluoromethoxy)phenyl)oxazol-2-yl)-N2-((S)-1-(4-nitrophenyl)piperidin-3-yl)cyclohexane-1,2-diamine] stands 49 nM.

Regarding `CC(C)(O)c1cccc(-c2cnc(N[C@@H]3CCCC[C@H]3N[C@H]3CCCN(c4ccc(C(F)(F)F)cc4)C3)o2)c1` [Example 170], the EC50 under setting [2] turned out to be 48 nM.

In the case of `Cc1nc(-c2ccc(N3CCC[C@H](N[C@@H]4CCCC[C@H]4Nc4ncc(-c5cccc(C(=O)O)c5)o4)C3)cn2)no1` [Example 384], where the note is “TABLE 7, R2 is Pyridinyl-oxadiazole-CH3, read-out: hY4 CAMP EC50”, the EC50 was 606 nM. For `Cc1noc(-c2ccc(N3CCC[C@H](N[C@@H]4CCCC[C@H]4Nc4ncc(-c5ccc(OC(F)(F)F)cc5)o4)C3)cc2)n1` [Example 355], the EC50 under setting [3] stood at 225 nM. On the same count and under the same terms, the result for `CC(=O)Nc1cccc(-c2ccnc(N[C@@H]3CCCC[C@H]3N[C@H]3CCCN(c4ccc(-c5nnn(C)n5)cc4)C3)c2)c1` [Example 506] reads 0.2 nM.

As for `FC(F)(F)c1ccc(N2CCC[C@H](N[C@@H]3CCCC[C@H]3Nc3cc(-c4cccc(C5CCCN5)c4)ccn3)C2)cc1` (stereo partly shown) [Example 183], the EC50 under setting [2] was found to be 153 nM.

In the case of `NC(=O)c1cccc(-c2cnc(N[C@@H]3CCCC[C@H]3N[C@H]3C[C@@H]4C[C@H]3N(c3ccc(C(F)(F)F)nc3)C4)o2)c1` [Example 328], the concentration for a half-maximal effect (EC50) under setting [4] was 31 nM.

With `CC(C)(C)COC(=O)Nc1cccc(-c2cnc(N[C@@H]3CCCC[C@H]3N[C@H]3CCCN(c4cnc(C(F)(F)F)nc4)C3)o2)c1` [Example 420], under setting [3], the EC50 was 212 nM. With `N#Cc1ccc(N2CCC[C@H](N[C@@H]3CCCC[C@H]3NC3=NOC(c4ccccc4)C3)C2)cc1` (stereo partly shown) [Example 230], the half-maximal effective concentration (EC50) under setting [5] amounted to 378 nM. Consider `NC(=O)c1cccc(-c2ccnc(N[C@@H]3CCCC[C@H]3N[C@H]3CCCN(c4ccc5ncnn5c4)C3)c2)c1` [Example 481], for which, under setting [3], the half-maximal effective concentration (EC50) came out at 34 nM.

For `C[C@]1(N[C@@H]2CCCC[C@H]2Nc2ncc(-c3cccc(C(N)=O)c3)o2)CCCN(c2ncc(C(F)(F)F)cn2)C1` [Example 405], the concentration for a half-maximal effect (EC50) under setting [3] was 4 nM.

Consider `C=Cc1ccnc(N[C@@H]2CCCC[C@H]2N[C@H]2CCCN(c3ccc(C#N)cc3)C2)c1` [Example 246], for which the half-maximal effective concentration (EC50) under setting [5] was 379 nM.

As to `O=[N+]([O-])c1ccc(N2C[C@@H]3C[C@H](N[C@@H]4CCCC[C@H]4Nc4cc(Cl)ncn4)[C@H]2C3)cc1` [Example 295], the concentration for a half-maximal effect (EC50) (TABLE 3, R2 is Phenyl-NO2, read-out: hY4 CAMP EC50) came to 122 nM. With `NC(=O)c1cccc(-c2cnc(N[C@@H]3CCCC[C@H]3N[C@H]3CCCN(c4ccc(-c5noc(C6CC6)n5)cn4)C3)o2)c1` [Example 452], the concentration for a half-maximal effect (EC50) under setting [3] is 3 nM. In the case of `N#Cc1ccc(N2CCCC(N[C@@H]3CCCC[C@H]3Nc3cc(-c4cccc(C(N)=O)c4)ccn3)C2)cn1` (stereo partly shown) [Example 312], the EC50 (TABLE 4, R2 is Pyridinyl-CN, read-out: hY4 CAMP EC50) is 124 nM.

Regarding `Cn1nnc(-c2ccc(N3CCC[C@H](N[C@@H]4CCCC[C@H]4Nc4cc(-c5ccc(OC(F)F)cc5)ccn4)C3)cc2)n1` [Example 503], the EC50 under setting [3] turned out to be 150 nM. The same measure, in the same setting: the result for `Cc1nnc(-c2ccc(N3CCC[C@H](N[C@@H]4CCCC[C@H]4Nc4cc(-c5cccc(C(N)=O)c5)ccn4)C3)cc2)o1` [Example 349] reads 1 nM.

For `N#Cc1ccc(N2CCC[C@H](N[C@@H]3CCCC[C@H]3Nc3ncc(-c4ccccc4)o3)C2)cc1` [Example 57, 4-((S)-3-((1R,2R)-2-(5-Phenyloxazol-2-ylamino)cyclohexylamino)piperidin-1-yl)benzonitrile], the half-maximal effective concentration (EC50) under setting [1] was found to be 25 nM. Still for that read-out and setting: the result for `O=[N+]([O-])c1ccc(N2CCC[C@H](N[C@@H]3CCCC[C@H]3Nc3nnc(-c4ccccc4)o3)C2)cc1` [Example 27, (1R,2R)—N1-((S)-1-(4-Nitrophenyl)piperidin-3-yl)-N2-(5-phenyl-1,3,4-oxadiazol-2-yl)cyclohexane-1,2-diamine] reads 60 nM. For the compound `O=C(O)c1cccc(-c2cnc(N[C@@H]3CCCC[C@H]3N[C@H]3CCCN(c4ccc(C(F)(F)F)nc4)C3)o2)c1` [Example 324], the EC50 under setting [4] worked out at 52 nM. Regarding `NC(=O)c1cccc(-c2cnc(N[C@@H]3CCCC[C@H]3N[C@H]3CCCN(c4cnc(C(F)(F)F)nc4)C3)o2)c1` [Example 97, 3-(2-(((1R,2R)-2-(((S)-1-(2-(trifluoromethyl)pyrimidin-5-yl)piperidin-3-yl)amino)cyclohexyl)amino)oxazol-5-yl)benzamide], the EC50 under setting [1] worked out at 6 nM. For `N#Cc1ccc(N2CCC[C@H](N[C@@H]3CCCC[C@H]3Nc3cc(-c4ccc(CO)cc4)ccn3)C2)cc1` [Example 218], the 50% effective concentration (EC50) under setting [5] stood at 302 nM. For `CCOC(=O)c1cnc(N[C@@H]2CCCC[C@H]2N[C@H]2CCCN(c3ccc(C(F)(F)F)cc3)C2)o1` [Example 184, ethyl 2-(((1R,2R)-2-(((S)-1-(4-(trifluoromethyl)phenyl)piperidin-3-yl)amino)cyclohexyl)amino)oxazole-5-carboxylate], under setting [2], the EC50 stood at 764 nM.

On to `N#Cc1ccc(N2CCC[C@H](N[C@@H]3CCCC[C@H]3Nc3ncc(-c4ccccc4F)o3)C2)cc1Cl` [Example 39, 2-Chloro-4-((S)-3-((1R,2R)-2-(5-(2-fluorophenyl)oxazol-2-ylamino)cyclohexylamino)piperidin-1-yl)benzonitrile bis-trifluoroacetate], for which, under setting [1], the EC50 came to 35 nM.

As to `O=C(Nc1nncs1)c1ccnc(N[C@@H]2CCCC[C@H]2N[C@H]2CCCN(c3ccc(C(F)(F)F)cc3)C2)c1` [Example 112], the EC50 under setting [1] was determined as 590 nM. On to `Cc1cnn(-c2ccc(N3CCC[C@H](N[C@@H]4CCCC[C@H]4Nc4ncc(-c5ccc(OC(F)(F)F)cc5)o4)C3)cc2)c1` [Example 66, (1R,2R)—N1-((S)-1-(4-(4-Methyl-1H-pyrazol-1-yl)phenyl)piperidin-3-yl)-N2-(5-(4-(trifluoromethoxy)phenyl)oxazol-2-yl)cyclohexane-1,2-diamine bis-trifluoroacetate], for which the concentration for a half-maximal effect (EC50) under setting [1] stood at 1260 nM. The same measure, in the same setting: under `c1ccc(-c2ccnc(N[C@@H]3CCCC[C@H]3N[C@H]3CCCN(c4ccc(-n5cccn5)cc4)C3)n2)cc1` [Example 64, (1R,2R)—N1-((S)-1-(4-(1H-Pyrazol-1-yl)phenyl)piperidin-3-yl)-N2-(4-phenylpyrimidin-2-yl)cyclohexane-1,2-diamine bis-trifluoroacetate] stands 89 nM; under `FC(F)(F)Oc1ccc(-c2cnc(N[C@@H]3CCCC[C@H]3N[C@H]3CCCN(c4ccc(-n5ccc(C(F)(F)F)n5)cc4)C3)o2)cc1` [Example 70, (1R,2R)—N1-(5-(4-(Trifluoromethoxy)phenyl)oxazol-2-yl)-N2-((S)-1-(4-(3-(trifluoromethyl)-1H-pyrazol-1-yl)phenyl)piperidin-3-yl)cyclohexane-1,2-diamine bis-trifluoroacetate], 799 nM. As to `NC(=O)c1cccc(-c2cnc(N[C@@H]3CCCC[C@H]3N[C@H]3C[C@@H]4C[C@H]3N(c3cnc(C(F)(F)F)cn3)C4)o2)c1` [Example 470], the half-maximal effective concentration (EC50) under setting [3] came to 162 nM. The same measure, in the same setting: the result for `Cc1nc(-c2ccc(N3CCC[C@H](N[C@@H]4CCCC[C@H]4Nc4cc(-c5cccc(C(N)=O)c5)ccn4)C3)cc2)no1` [Example 347] reads 0.2 nM. Regarding `FC(F)(F)Oc1ccccc1-c1cnc(N[C@@H]2CCCC[C@H]2N[C@H]2CCCN(c3ccc(C(F)(F)F)cc3)C2)o1` [Example 197], the half-maximal effective concentration (EC50) under setting [2] is 12 nM. Consider `N#Cc1ccc(N2CCC[C@H](N[C@@H]3CCCC[C@H]3Nc3cc(-c4ccccc4O)ccn3)C2)cc1` [Example 276], for which the concentration for a half-maximal effect (EC50) under setting [5] was determined as 120 nM. For the compound `Cc1nc(-c2ccc(N3CCC[C@H](N[C@@H]4CCCC[C@H]4Nc4cc(-c5cccc(OC(F)(F)F)c5)ccn4)C3)cc2)no1` [Example 341], under setting [3], the EC50 came out at 123 nM. Same read-out and setting: the result for `Cc1nnc(-c2ccc(N3CCCC(N[C@@H]4CCCC[C@H]4Nc4cc(-c5ccccc5F)ccn4)C3)cc2)o1` (stereo partly shown) [Example 367] reads 9 nM. Still for that read-out and setting: under `N#Cc1ccnc(N[C@@H]2CCCC[C@H]2N[C@H]2CCCN(c3cnc(C(F)(F)F)nc3)C2)c1` [Example 426] stands 600 nM; under `CC(C)OC(=O)Nc1cccc(-c2cnc(N[C@@H]3CCCC[C@H]3N[C@H]3CCCN(c4cnc(C(F)(F)F)nc4)C3)o2)c1` [Example 421], 23 nM; under `CCc1nc(-c2ccc(N3CCC[C@H](N[C@@H]4CCCC[C@H]4Nc4ncc(-c5cccc(C(N)=O)c5)o4)C3)nc2)no1` [Example 448], 2 nM. Take `FC(F)(F)c1ccc(N2CCC[C@H](N[C@@H]3CCCC[C@H]3Nc3cc(-c4cn[nH]c4)ccn3)C2)cc1` [Example 171]: the EC50 under setting [2] is 142 nM. Take `COC(=O)Nc1cccc(-c2ccnc(N[C@@H]3CCCC[C@H]3N[C@H]3CCCN(c4ccc(C#N)cc4)C3)c2)c1` [Example 200]: the half-maximal effective concentration (EC50) under setting [5] is 3 nM. As for `NC(=O)c1cccc(-c2cnc(N[C@@H]3CCCC[C@H]3N[C@H]3CCCN(c4ccc(C(F)(F)F)cn4)C3)o2)c1` [Example 318], the EC50 under setting [4] is 1 nM. `Cc1nc(-c2ccc(N3CCC[C@H](N[C@@H]4CCCC[C@H]4Nc4cc(-c5ccc(F)cc5F)ccn4)C3)cc2)no1` [Example 343]: the EC50 under setting [3] was found to be 11 nM. Turning to `Cc1ccn(-c2ccc(N3CCC[C@H](N[C@@H]4CCCC[C@H]4Nc4nccc(-c5ccccc5)n4)C3)cc2)n1` [Example 67, (1R,2R)—N1-((S)-1-(4-(3-Methyl-1H-pyrazol-1-yl)phenyl)piperidin-3-yl)-N2-(4-phenylpyrimidin-2-yl)cyclohexane-1,2-diamine bis-trifluoroacetate], the concentration for a half-maximal effect (EC50) under setting [1] was found to be 57 nM.

What is called EC50 is the midpoint of the concentration-response curve.
